{"source": "patent US20230310432A1", "about": "(JULIUS-MAXIMILIANS-UNIVERSITÄT WÜRZBURG, priority 2017, published 2023)", "key": {"[1]": {"test_system": "CD8+ T cells expressing a CD19 CAR with CD28 costimulatory domain", "experiment": "Bioluminescence-based cytotoxicity assay, K562/CD19 target cells", "type": "cell-based, human"}, "[2]": {"test_system": "CD8+ T cells expressing a ROR1 CAR with 4-1BB costimulatory domain", "experiment": "Bioluminescence-based cytotoxicity assay, K562/ROR1 target cells", "type": "cell-based, human"}, "[3]": {"test_system": "CD8+ T cells expressing a CD19 CAR with 4-1BB costimulation", "experiment": "Cytokine production and secretion (IFN-γ, IL-2 ELISA), co-culture with K562/CD19", "type": "cell-based, human", "details": "20 h"}, "[4]": {"test_system": "CD8+ T cells expressing a ROR1 CAR with 4-1BB costimulatory domain", "experiment": "CFSE proliferation assay, co-culture with K562/ROR1", "type": "cell-based, human", "details": "dasatinib ≥50 nM; 72 h", "procedure": "Proliferation: T cells were labeled with 0.2 μM carboxyfluorescein succinimidyl ester (CFSE, Invitrogen), washed and plated in duplicate or triplicate wells with irradiated (80 Gy) stimulator cells at an E:T ratio of 4:1 (K562/ROR1, K562/CD19 or RCH-ACV). No exogenous cytokines were added to the culture medium. After a 72-hour incubation, cells were labeled with anti-CD3 mAb, and analyzed by flow cytometry to assess cell division of T cells.\nCAR-T cells were labeled with CFSE and co-cultured with K562 that the inventors had transduced with either CD19 (for testing CD19 CAR-T cells) or ROR1 (for testing ROR1 CAR-T cells). Dasatinib was added to the assay medium at the beginning of the co-culture assay. Flow cytometric analyses were performed to determine the proliferation of T cells at the end of the co-culture assay."}, "[5]": {"test_system": "CD4+ T cells expressing a CD19 CAR with 4-1BB costimulation", "experiment": "Multiplex cytokine analysis, co-culture with K562/CD19", "type": "cell-based, human", "details": "dasatinib ≥25 nM; 20 h; compared to non-dasatinib treated CAR-T cells", "experimental": "A multiplex cytokine analysis was performed in supernatant removed from the co-culture."}, "[6]": {"test_system": "CD8+ CD19 CAR/4-1BB T cells", "experiment": "Apoptosis assay (Annexin-V/7-AAD) after co-culture with K562/CD19", "type": "cell-based, human", "procedure": "CD8^+ CD19 CAR-T cells were cultured in the presence of 50 U IL-2 either alone or with irradiated (80 Gy) K562/CD19 tumor cells at an E:T ratio of 4:1. […] After 24 hours of co-culture, co-cultures were labeled with anti-CD8 mAb, 7AAD and AnnexinV according to the manufacturer's instructions (BD Biosciences, Heidelberg, Germany), and analyzed by flow cytometry to evaluate the amount of apoptotic and dead T cells.\nAt the end of the co-culture, the inventors performed staining with Annexin-V and 7-AAD to determine the percentage of live CAR-T cells (Annexin-V-negative/7-AAD-negative), CAR-T cells undergoing apoptosis (Annexin-V-positive/7-AAD-negative), and dead CAR-T cells (Annexin-V-positive/7-AAD-positive)."}, "[7]": {"test_system": "NFAT/GFP reporter in CD4+ T cells co-expressing the CD19 CAR with 4-1BB costimulatory domain", "experiment": "NFAT/GFP reporter assay during sequential stimulation", "type": "cell-based, human"}, "[8]": {"test_system": "NFAT inducible GFP reporter gene in CD19CAR/41BB T cells", "experiment": "NFAT-inducible GFP reporter expression in CAR-T cells in vivo", "design": "species or system NSG mice", "from_the_text": "The inventors prepared CD8^+ and CD4^+ CD19CAR/41BB T cells, which the inventors transduced to co-express an NFAT inducible GFP reporter gene."}, "[9]": {"test_system": "activated CD19 CAR/4-1BB-T cells; Raji tumor cells", "experiment": "Raji tumor burden by bioluminescence imaging, function ON/OFF/ON (Example 7)", "type": "in vivo, NSG mice", "details": "between day 12 and 17; CAR-T cells with prior dasatinib; 97.8% without", "procedure": "The Institutional Animal Care and Use Committee of UKW approved all mouse experiments. NOD.Cg-Prkdc^scidIl2rg^tm1wjl/SzJ (NSG) mice (female, 6-8 week old) were purchased from Charles River (Sulzfeld, Germany). Mice were inoculated with 1×10^6 Raji/ffluc_GFP tumor cells via tail vein injection (i.v.). Mice were treated with 5×10^6 CAR-modified or control untransduced T-cells (CD4:CD8 ratio=1:1) via tail vein injection (i.v.). […] Tumor burden and distribution was analyzed by serial bioluminescence imaging on an IVIS Lumina imager (Perkin Elmer, Baesweiler, Germany): mice received i.p. injections of 0.3 mg/g luciferin and images were acquired 10 minutes after luciferin injection in small binning mode at an acquisition time of 1 s to 1 min to obtain unsaturated images. Data were analyzed using LivingImage Software (Caliper) and the average radiance (or photon flux) analyzed in regions of interest that encompassed the entire body of each individual mouse. Mice were sacrificed at the end of the experiment and human T cells in bone marrow, peripheral blood and spleen were analyzed by flow cytometry. The presence of (human) cytokines in serum was measured using multiplex cytokine analysis. […]\nRaji tumor burden was determined by bioluminescence imaging on day 7, day 10, day 12, day 14, day 17, and subsequently, once a week (FIG. 16B)."}, "[10]": {"test_system": "CD8+ T cells expressing a ROR1 CAR with 4-1BB costimulatory domain", "experiment": "Bioluminescence-based cytotoxicity assay, RCH-ACV target cells", "type": "cell-based, human", "details": "100 nM dasatinib; t=8 hours; >90% untreated"}, "[11]": {"details": "dasatinib 100 nM added 2 hours after the start of the co-culture"}, "[12]": {"details": "dasatinib added at 2 hours after the start of the co-culture, 24 h"}, "[13]": {"details": "d+3, dasatinib not in effect any more"}}}
{"compound": "Cc1nc(Nc2ncc(C(=O)Nc3c(C)cccc3Cl)s2)cc(N2CCN(CCO)CC2)n1", "note": "[dasatinib]", "values": [{"measurement": "specific lysis of target cells", "setting": "[1]; dasatinib 50 nM, t=5 h, 52% by non-dasatinib treated", "result": "less than 23%"}, {"measurement": "residual specific lysis of target cells", "setting": "[1]; dasatinib 50 nM, t=10 h, 91% by non-dasatinib treated", "result": 47, "unit": "%"}, {"measurement": "specific lysis of target cells", "setting": "[1]; dasatinib 100 nM, any given time point, 91% by non-dasatinib treated at t=10 h", "result": "less than 10%"}, {"measurement": "specific lysis of target cells", "setting": "[2]; dasatinib 25 nM, up to t=5 h, 73% by non-dasatinib treated", "result": "less than 2%"}, {"measurement": "specific lysis of target cells", "setting": "[2]; dasatinib 50 nM, any given timepoint, 94% by non-dasatinib treated at t=10 h", "result": "less than 2%"}, {"measurement": "residual IFN-γ production (untreated CAR-T cells=100%)", "setting": "[3]; [11]", "result": 51, "unit": "%"}, {"measurement": "residual IL-2 production (untreated CAR-T cells=100%)", "setting": "[3]; [11]", "result": 28, "unit": "%"}, {"measurement": "residual specific IFN-γ production compared to non-dasatinib treated CAR-T cells", "setting": "[3]; dasatinib ≥6.25 nM", "result": "less than 45%"}, {"measurement": "residual specific IL-2 production compared to non-dasatinib treated CAR-T cells", "setting": "[3]; dasatinib ≥6.25 nM", "result": "less than 60%"}, {"measurement": "residual specific IL-2 production compared to non-dasatinib treated CAR-T cells", "setting": "[3]; dasatinib ≥50 nM", "result": "less than 1%"}, {"measurement": "residual proliferation compared to non-dasatinib treated CAR-T cells", "setting": "[4]", "result": "less than 7%"}, {"measurement": "reduction of production and secretion of GM-CSF, IFN-γ, IL-2, IL-4, IL-5, IL-6, IL-8", "setting": "[5]", "result": "> 95", "unit": "%"}, {"measurement": "dead CAR-T cells (Annexin-V-positive/7-AAD-positive)", "setting": "[6]; 100 nM dasatinib present, 24 h with K562/CD19, 8.4% in absence", "result": 6.9, "unit": "%"}, {"measurement": "alive CAR-T cells (Annexin-V-negative/7-AAD-negative)", "setting": "[6]; 100 nM dasatinib present, 24 h with K562/CD19, 25.4% in absence", "result": 47.4, "unit": "%"}, {"measurement": "apoptotic CAR-T cells (Annexin-V-positive/7-AAD-negative)", "setting": "[6]; 100 nM dasatinib present, 24 h with K562/CD19, 66.2% in absence", "result": 45.7, "unit": "%"}, {"measurement": "alive CAR-T cells", "setting": "[6]; [12]", "result": 41.7, "unit": "%"}, {"measurement": "apoptotic CAR-T cells", "setting": "[6]; [12]", "result": 51.3, "unit": "%"}, {"measurement": "dead CAR-T cells", "setting": "[6]; [12]", "result": 7, "unit": "%"}, {"measurement": "GFP MFI", "setting": "[7]; day 1, dasatinib present from the beginning", "result": 317}, {"measurement": "GFP MFI", "setting": "[7]; day 3, treated at 1 hour after assay set up, 2499 in untreated", "result": 326}, {"measurement": "GFP MFI", "setting": "[7]; day 3, treated from the beginning, 2499 in untreated", "result": 108}, {"measurement": "mean fluorescence intensity (MFI) for GFP in bone marrow CAR-T cells", "setting": "[8]; d+1, CAR/treated, 10687 CAR/untreated", "result": 6967}, {"measurement": "reduction of GFP MFI, bone marrow CAR-T cells", "setting": "[8]; d+1, treated vs untreated", "result": 35, "unit": "%"}, {"measurement": "reduction of GFP reporter gene expression, spleen CAR-T cells", "setting": "[8]; d+1, treated vs untreated", "result": 36, "unit": "%"}, {"measurement": "difference in GFP between previously treated and untreated CAR-T cells, bone marrow", "setting": "[8]; [13]", "result": 10, "unit": "%"}, {"measurement": "difference in GFP between previously treated and untreated CAR-T cells, spleen", "setting": "[8]; [13]", "result": 23, "unit": "%"}, {"measurement": "reduction of tumor luminescence", "setting": "[9]", "result": 66, "unit": "%"}, {"measurement": "specific lysis", "setting": "[10]", "result": "< 5", "unit": "%"}]}
